Non-standard residues stand in square brackets, D forms with d. Residues, ends and D or L forms follow the SMILES beside them. No end group written: not given here. Dmt = Cc1cc(O)cc(C)c1C[C@H](N)C(=O)O
Legend:
[1] = test system: several mammalian cell types; details: energy-independent manner (Zhao, et al., 2003); cited from earlier work
[2] = test system: Col4a3 null mice (Alport mice); assay: Survival of Col4a3 null mice (Alport Syndrome mouse model); format: in vivo; details: 1 mg/kg or 5 mg/kg once daily subcutaneous
Excerpt: Six animals from experimental groups (1)-(4) were sacrificed for tissue collection at week 15. One kidney from each animal was harvested for protein/RNA analysis and the second kidney was collected for paraffin sections for analysis via microscopy. Survival data was collected for the remaining 10 animals in groups (1)-(4).

[3] = Col4a3 null mice, daily 5 mg/kg, 15 weeks of age, 30 minutes after the last injection; compared with 5 mg/kg at 6 weeks and 1 mg/kg at 15 weeks
Protocol: Homozygous male Col4a3 null mice and wild-type litter mates were used in this study. Subjects were divided into the following groups: • (1) Healthy wild-type controls • (2) Col4a3 null mice treated with water • (3) Col4a3 null mice treated with 1 mg/kg D-Arg-2′6′-Dmt-Lys-Phe-NH2 • (4) Col4a3 null mice treated with 5 mg/kg D-Arg-2′6′-Dmt-Lys-Phe-NH2 • (5) Col4a3 null mice treated with 5 mg/kg D-Arg-2′6′-Dmt-Lys-Phe-NH2 (Pharmacokinetics group)
Groups (1)-(4) consisted of 16 mice, out of which 10 were used for survival rate studies and 6 for pathology and RNA/protein analysis. Group (5) consisted of 6 mice, 3 of which were sacrificed at 30 minutes after the 7th injection (age, 6 weeks), and 3 at 24 hours after the 7th injection (age, 6 weeks).

[4] = target: mu-opioid receptor (Homo sapiens, UniProt P35372); details: stated in the description, no test described; cited from earlier work
Chain of mu-opioid receptor (P35372 whole entry, species assumed): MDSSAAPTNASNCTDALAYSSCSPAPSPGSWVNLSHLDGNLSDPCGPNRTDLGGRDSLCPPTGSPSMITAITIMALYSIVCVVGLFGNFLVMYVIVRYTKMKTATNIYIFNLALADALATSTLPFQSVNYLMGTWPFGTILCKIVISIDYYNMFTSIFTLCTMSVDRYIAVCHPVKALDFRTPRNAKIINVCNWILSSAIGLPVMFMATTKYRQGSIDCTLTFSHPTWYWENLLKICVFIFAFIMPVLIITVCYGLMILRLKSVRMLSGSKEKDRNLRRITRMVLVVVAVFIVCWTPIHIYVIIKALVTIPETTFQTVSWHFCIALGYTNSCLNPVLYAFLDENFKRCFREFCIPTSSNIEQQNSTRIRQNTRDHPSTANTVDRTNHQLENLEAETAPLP

## 2′,6′-Dmt-D-Arg-Phe-Lys-NH2
[1]
  penetration of the plasma membrane: readily penetrates the plasma membrane

## Cc1cc(O)cc(C)c1C[C@H](NC(=O)[C@H](N)CCCNC(=N)N)C(=O)N[C@@H](CCCCN)C(=O)N[C@@H](Cc1ccccc1)C(N)=O [D-Arg-2′,6′-Dmt-Lys-Phe-NH2] (H-[dR][Dmt]KF-NH2)
[2]
  harm of peptide administration: not harmful
[3]
  plasma levels: highest

## F[dR]FK-NH2
[4]
  mu-opioid receptor agonist activity: does not have mu-opioid receptor agonist activity

## Tyr-D-Arg-Phe-Lys-NH2
[4]
  mu-opioid receptor agonist activity: has mu-opioid receptor agonist activity

— patent US12337023B2, “Methods and compositions for the prevention and treatment of disease” (Stealth BioTherapeutics Inc., priority 2014, dated 2025)
